# Reference: patent US20170342503A1, “XRN2 AS A DETERMINANT OF SENSITIVITY TO DNA DAMAGE” (The Board of Regents of the University of Texas System, priority 2016, published 2017)
# Legend:
# [1] = tested on: XRN2 deficient cells, fibroblast or MDA-MB-231 cells; assay: Colony forming ability assay in shScr versus shXRN2 cells after genomic insult; assay type: cell-based, human; details: FIGS. 12E-F
# Excerpt: (FIGS. 12A-D) shScr versus shXRN2 cells (as indicated in the graph) or cells exposed to si-control (siSCR) versus XRN2 specific siRNA (siXRN2) were either mock-treated or exposed to: (FIGS. 12A-B) ionizing radiation (IR); (FIGS. 12C-D) ultraviolet light (UV). (FIGS. 12E-F) shScr and shXRN2, were either mock-treated or exposed to: (FIG. 12E) H2O2 or (FIG. 12F) Aphidicolin (APH). Cells were then monitored for survival using colony forming ability assays. Colonies of >50 normal-appearing cells were quantified for mock-versus agent-exposed cells. (**p<0.01).
# shScr and shXRN2 cells were plated onto 60 mm tissue culture plates and allowed to grow for two days. Cells were then exposed to IR and UV (at various doses as indicated), allowed to grow for 7 days, washed with PBS and stained with crystal violet solution. Colonies with >50 normal appearing cells were counted and percent survival calculated and graphed with dose.
# [2] = tested on: cells with transient siRNA-mediated loss of XRN2; assay: Colony forming assay, PARP inhibition with transient siRNA-mediated loss of XRN2; assay type: cell-based; details: FIG. 8C, p<0.05
# Procedure: FIGS. 8A-C. XRN2 depletion sensitizes cells to genetic knockdown and chemical inhibition of PARP1. […] (FIG. 8B) Loss of XRN2 and PARP1 by transient siRNA knockdown together inhibits cellular growth and survival; black column—shSCR; white column—shXRN2.
# shScr and shXRN2 cells were plated onto 60 mm tissue culture plates and allowed to grow for two days. […] Colonies with >50 normal appearing cells were counted and percent survival calculated and graphed with dose.
# [3] = tested on: advanced pancreatic cancer; details: people with advanced pancreatic cancer; cited from earlier work
# fibroblast cells = assay: Immunofluorescence of XRN2 and R loop (S9.6) foci after UV treatment; assay type: cell-based, human; details: UV (20 J/m^2) + a-amanitin; FIG. 17D
# Excerpt: FIGS. 10A-D. XRN2 is a DNA damage response (DDR) factor. (FIG. 10A) To interrogate potential in vivo XRN2-interacting partners, exponentially growing HeLa cells were collected and lysed for FPLC analyses. Individual fractions were separated by SDS-PAGE and western blot techniques used to probe for indicated proteins. (FIG. 10B) Interactions between XRN2 and the DNA damage regulators Ku80, 53BP1, and BRCA1 were interrogated by immunoprecipitation (IP). (FIG. 10C) Sub-cellular XRN2 localization was quantitated in shScr and […] cells in mock-, IR (1 Gy), and UV (20 J/m^2) fibroblast cells. (FIG. 10D) Sub-cellular XRN2 localization and S9.6 foci was visualized in mock-, UV (20 J/m^2)-, or UV (20 J/m^2)+a amanitin (a-aman)-treated shScr and shXRN2 fibroblast cells by IF. (*p<0.05).
# FIGS. 17A-D. XRN2 undergoes transcription-dependent nuclear re-distribution in response to IR and UV. (FIGS. 17A-D) Sub-cellular localization of XRN2 was monitored in fibroblast cells either after (FIG. 17A) mock, (FIG. 17B) IR (1Gy), (FIG. 17C) UV (20 J/m^2), or (FIG. 17D) UV (20 J/m^2)+a-amanitin treated cells by IF.
# To visualize 53BP1, XRN2, and γ-H2AX, cells were plated, grown to ˜70% confluency on glass coverslips and either mock- or IR-treated. […] Visualization was performed using a 100× oil objective lens with fluorescence on a Nikon microscope. For each experiment 100 cells were counted. […]
# shXRN2 cells = assay: Regression of 53BP1 foci/nucleus after IR exposure (DNA repair kinetics); assay type: cell-based; details: IR (1 Gy); treatment prior to IR; FIGS. 15B-C
# Excerpt: FIGS. 15A-C. R loop formation and transcription contribute to delayed DSB repair kinetics in XRN2-deficient cells. (FIG. 15A) Levels of R loops were monitored in mock- or IR (1 Gy)-exposed shXRN2 compared to shScr MDA-MB-231 breast cancer cells by IF. (FIGS. 15B-C) Regression of 53BP1 foci/nucleus was monitored in mock- or IR (1 Gy)-treated shXRN2 compared to shScr cells that were exposed to a-amanitin or GFP- or GFP-RNaseH transfection at the indicated times by IF. (*p<0.05).
# To visualize 53BP1, XRN2, and γ-H2AX, cells were plated, grown to ˜70% confluency on glass coverslips and either mock- or IR-treated. […] Visualization was performed using a 100× oil objective lens with fluorescence on a Nikon microscope. For each experiment 100 cells were counted.
# Since the loss of XRN2 sensitized cells to IR treatment (FIG. 12A), the inventors examined the effects of IR on R-loop formation in shXRN2 cells. Because R-loops can directly lead to DSBs, they examined whether active transcription or R-loop formation directly affected DNA repair (regression of 53BP1 foci) after IR treatment. shScr or shXRN2 cells were treated or not with a-amanitin or transfected with GFP- or GFP-RNaseH expression plasmids prior to IR exposure and 53BP1 foci/nuclei regression kinetics were assessed at various times after IR exposure.
# [4] = tested on: shXRN2 human fibroblast cells; assay: Immunofluorescence of basal 53BP1 foci and R loops in shXRN2 versus shScr cells; assay type: cell-based
# Procedure: FIGS. 24A-C. DSBs formed in XRN2 deficient cells are dependent on active transcription and R-loop formation. (FIGS. 24A-B) Levels of 53BP1 were monitored in shXRN2 and compared to shScr human fibroblast cells after exposure to mock-, a-amanitin-, or GFP- or RNaseH-transfection treatments by IF. (FIG. 24C) Levels of R loops or 53BP1 were monitored in mock- or a-amanitin-treated shXRN2 cells by IF.
# To visualize 53BP1, XRN2, and γ-H2AX, cells were plated, grown to ˜70% confluency on glass coverslips and either mock- or IR-treated. Cells were then washed once with PBS, permeabilized and fixed in methanol/acetone (70/30, v/v). To visualize ATM pS 1981 and Mre11 cells were fixed in 3% paraformaldehyde/2% sucrose PBS solution for 10 min at room temperature (RT). Fixation was followed by permeabilization on ice with a 0.5% Triton X-100 buffer (0.5% Triton X-100, 20 mM HEPES, pH 7.4, 50 mM NaCl, 3 mM MgCl, and 300 mM sucrose). […] Visualization was performed using a 100× oil objective lens with fluorescence on a Nikon microscope. For each experiment 100 cells were counted.
# To determine how transcription and R-loop formation contributed to the DNA damage observed in shXRN2 cells, the inventors treated shScr and shXRN2 cells with a-amanitin or transfected each cell line with GFP control or GFP-RNaseH expression plasmids to remove R-loops and measured the number of 53BP1 foci.
compound,measurement,setting,value
C[C@@]1(CO)[C@H](O)CC[C@@]2(C)[C@H]1CC[C@H]1C[C@@H]3C[C@@]12CC[C@]3(O)CO [aphidicolin],sensitivity of XRN2 deficient cells (colony forming ability after exposure),[1],hypersensitive
O=C1NCCc2c(OCCCCN3CCCCC3)cccc21 [DPQ],effect of PARP activity inhibition on survival in colony forming assays with loss of XRN2,[2],synthetic lethal
Nc1ccn([C@@H]2O[C@H](CO)[C@@H](O)C2(F)F)c(=O)n1 [Gemcitabine],improvement in median survival duration,[3],5 week
OO [hydrogen peroxide],sensitivity of XRN2 deficient cells (colony forming ability after exposure),[1],hypersensitive
a-amanitin,XRN2 and R loop foci formation after UV treatment,fibroblast cells,failed to form
same,DNA repair kinetics (regression of 53BP1 foci) after IR exposure in shXRN2 cells,shXRN2 cells,completely restored DNA repair kinetics
same,R-loop levels in shXRN2 cells,"[4]; after a-amanitin treatment, FIG. 24C",decrease in R-loop levels
same,53BP1 foci in shXRN2 cells,"[4]; inhibition of transcription, to levels comparable to shScr cells, FIGS. 24A-B",decreased 53BP1 foci
